In US6562620B2, “Medium to promote islet cell survival” (McGill University, priority 1997, dated 2003):

What was measured:
erk1 and erk2 = erk1 and erk2 activation in isolated islets; type: cell-based; details: human islets; FIG. 6
From the text: (§1) The former two pathways are known to be associated with the induction of the apoptotic program, while the latter may be protective.
Signalling through erk has been associated with cell differentiation and cell survival (FIG. 6).

islets = test: Cell death detection ELISA (DNA fragmentation) of cultured islets; type: cell-based, Syrian golden hamsters; details: 3 days serum then 9 days in 25% DCM or 34 ng/ml IGF-II; mean±SEM, n=6; FIG. 10
Method: Three experimental groups were designed for this study: Group 1 (control), with 100 islets per culture flask; Group 2 (islets plus ducts), with 100 islets plus 80 ducts per flask; and Group 3 (islets in 25% DCM), with 100 islets per flask.
All tissues were embedded in rat tail collagen and incubated in a humidified atmosphere of 95% air, 5% CO2 at 37° C. The baseline medium for all groups was DMEM/F12, supplemented with 10% NuSerum for three days at the start of the culture period, followed by 9 days of serum-free incubation. The medium was changed every other day.
After a 12 day incubation period, the media was removed and 3 ml of collagenase XI (0.25 mg/ml) was added to each flask for 40 min. The islets were hand-picked and washed three times in Hank's buffered salt solution (HBSS, Gibco, Montreal, Quebec, Canada). The presence of DNA fragmentation, a characteristic feature of apoptosis was determined using a cell death detection ELISA (Boehringer Mannheim, Laval, Quebec). The results were expressed as absorbance at 405 nm and corrected for total DNA content. DNA (μg) was measured by fluorometry using disbenzimidazole (Hoechst 33258, Sigma, Montreal, Quebec) as described (Labarca & Pagen, 1987, Analytical Biochemistry 102:44-52).
The islets were embedded in rat tail collagen and cultured in DMEM/F12 supplemented with 10% NuSerum. […]

p38 = p38 activation in canine islets (Western blot); type: cell-based; details: collagen 400 μg/ml
From the text: as §1
Signaling through the p38 MAP kinase is one pathway whose downstream effectors have been implicated in […].
In addition to growth factors, evidence is provided for the beneficial effect of matrix molecules, e.g. fibronectin for human islets, and collagen for canine islets (FIGS. 4 and 5) The data for p38 activation and its modulation by collagen represents the effect of 200 μg/ml of collagen type 1. Not shown, is that collagen in a concentration of 400 μg/ml will decrease p38 activation by over 50%.

Row | Substance | effect on erk1 and erk2 activation (erk1 and erk2) | also measured
1 | IGF-I: insulin-like growth factor-1 | positive effect | 
2 | IGF-II: insulin-like growth factor II, growth factor added at 34 ng/ml |  | cell death ELISA (DNA fragmentation), IGF-II study (islets): 2.5 ± 1.0
3 | collagen |  | decrease of p38 activation (p38): over 50%
4 | insulin | positive effect | 
